Assay [1] concerns MBP-SUFU-FL, mutation of Tyr147. The experiment in a line: Microscale thermophoresis, MBP-SUFU-FL mutated at Tyr147. To be noted: mutation of Tyr147 in MBP-SUFU-FL, data not shown. It is filed as binding, human. As to the method: (§1) A 5-FAM-labelled peptide (FAM-GLI1p) comprising residues 115–131 of GLI1 (Supplementary Table S1b) was synthesized by Pepceuticals Ltd. A titration series of each recombinant protein was prepared by serial 1:1 dilutions in MST buffer (50 mM Tris–HCl pH 7.6, 150 mM NaCl, 10 mM MgCl2, 0.05% Tween-20) and mixed in a 1:1 ratio with FAM-GLI1p to give final concentrations of 50 nM FAM-GLI1p with MBP-SUFU constructs in the ranges 14.2–29 070 and 54–110 500 nM. Reactions were aspirated into glass capillaries and the thermophoretic movement of FAM-GLI1p was monitored using a Monolith NT.115 instrument (NanoTemper Technologies; Wienken et al., 2010[▶]), with a laser on for 30 s and off for 5 s and a laser power/voltage of 20% for MBP-SUFU-FL and the MBP-SUFU-FL mutants, 40% for MBP-SUFU-Δ and 80% for MBP-SUFU-SH. Fluorescence was measured before laser heating (F Cold) and after 30 s of laser-on time (F Hot). The normalized fluorescence F Hot/F Cold reflects the concentration ratio of labelled molecules. F Hot/F Cold was plotted directly and multiplied by a factor of […], yielding a relative change in fluorescence per thousand. K d was calculated from three independent thermophoresis measurements using NanoTemper software (NanoTemper Technologies). […]
On the technique in general: MST reads how a fluorescent partner responds to local heating, with and without ligand.

Assay [2] relates to MBP-SUFU-FL, mutation of Asp159. The experiment in a line: Microscale thermophoresis, MBP-SUFU-FL mutated at Asp159. It counts as binding, human. The following applies: mutation of Asp159 in MBP-SUFU-FL, data not shown. How it is done:
as §1

In assay [3] the test system is MBP-SUFU-FL, mutation of Glu376. Description: Microscale thermophoresis, MBP-SUFU-FL mutated at Glu376. The following applies: mutation of Glu376 in MBP-SUFU-FL, data not shown. It counts as binding, human. As to the method:
as §1

The target in another assay is T1, MBP-SUFU-FL (Homo sapiens, UniProt Q9UMX1).
T1 construct: containing residues 32–483 of human SUFU and a C-terminal hexahistidine tag; hexahistidine tag (C); made in house; host or cells: Escherichia coli JM109 (DE3)
Description: SYPRO Orange initial fluorescence upon peptide addition, MBP-SUFU-FL. It counts as binding. The following applies: excitation 470 nm, emission 570 nm, pH 7.0. As to the method: (§2) Recombinant MBP-SUFU proteins were diluted to 2.6 µM in 50 mM Na HEPES pH 7.0, 50 mM NaCl, 5 mM β-mercaptoethanol; the peptides GLI1p and GLI1p-SH (Supplementary Table S1b), synthesized by Dr W. Mawby (University of Bristol), were dissolved in the same buffer. Proteins were spun at 14 000g for 20 min at 4°C before adding SYPRO Orange (Molecular Probes) to a final concentration of 6×. Reaction volumes of 25 µl were prepared in 96-well PCR plates with 2.2 µM protein/SYPRO Orange solution and, where applicable, 44 µM peptide. Plates were sealed with optical tape, heated from 20 to 90°C in 12 s 0.2°C steps in an iCycler and fluorescence was detected using an excitation wavelength of 470 nm and an emission wavelength of 570 nm.
(§3) Recombinant MBP-SUFU constructs were diluted to 2.5 µM in 50 mM Na HEPES pH 7.0, 50 mM NaCl, 5 mM β-mercaptoethanol and spun at 14 000g for 20 min at 4°C before the addition of SYPRO Orange to a final 5× concentration of dye. The fluorescence of 100 µl samples was measured in black 96-well plates (Nunc) using excitation at λ = 470 nm and emission at λ = 570 nm. GLI1p or GLI1p-SH peptides prepared in the same buffer as above were added in the given ratios and mixed before a second reading was taken. Readings post-peptide addition were divided by the corresponding pre-peptide addition measurements to obtain normalized results. […]

The subject of the next assay is MBP-SUFU-SH. Description: SYPRO Orange initial fluorescence upon peptide addition, MBP-SUFU-SH. It is filed as binding, human. The following applies: excitation 470 nm, emission 570 nm, pH 7.0. How it is done:
as §2, §3

T1 sequence (Q9UMX1 32-483, other chains not shown): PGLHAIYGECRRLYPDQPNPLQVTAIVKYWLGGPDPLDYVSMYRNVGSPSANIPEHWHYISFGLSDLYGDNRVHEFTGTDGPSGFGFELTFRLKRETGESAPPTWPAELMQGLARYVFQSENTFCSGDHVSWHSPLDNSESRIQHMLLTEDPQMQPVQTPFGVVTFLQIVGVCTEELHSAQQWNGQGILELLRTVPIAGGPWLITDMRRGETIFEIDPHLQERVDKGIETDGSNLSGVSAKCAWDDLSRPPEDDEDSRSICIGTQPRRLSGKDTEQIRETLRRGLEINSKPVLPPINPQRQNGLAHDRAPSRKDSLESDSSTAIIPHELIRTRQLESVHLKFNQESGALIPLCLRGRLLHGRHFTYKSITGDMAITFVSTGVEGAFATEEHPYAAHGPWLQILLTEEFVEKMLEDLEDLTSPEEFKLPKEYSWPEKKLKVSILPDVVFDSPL
Chain of MBP-SUFU-SH (Q9UMX1 32-278 limits assumed): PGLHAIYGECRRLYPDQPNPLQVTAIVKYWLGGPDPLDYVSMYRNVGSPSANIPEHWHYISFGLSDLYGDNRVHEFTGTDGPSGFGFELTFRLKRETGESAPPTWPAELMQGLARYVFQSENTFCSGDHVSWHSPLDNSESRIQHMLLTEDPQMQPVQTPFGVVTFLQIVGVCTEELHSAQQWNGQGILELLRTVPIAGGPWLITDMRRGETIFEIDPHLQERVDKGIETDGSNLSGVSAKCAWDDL
Chain of MBP-SUFU-SH (Q9UMX1 361-483 limits assumed): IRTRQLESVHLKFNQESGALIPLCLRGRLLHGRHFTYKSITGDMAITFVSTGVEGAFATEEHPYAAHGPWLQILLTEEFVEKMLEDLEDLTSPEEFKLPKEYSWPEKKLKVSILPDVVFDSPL

For the substance “GLI1p: human GLI1-derived peptide; residues 115–131, containing the highly conserved SYGH motif (TSPGGSYGHLSIGTMSP)”, the detectable binding result in assay [1], in assay [2] and in assay [3] was “abolished detectable binding” in each case. In addition, the “initial fluorescence upon addition of GLI1p” value with MBP-SUFU-FL is listed as “high initial fluorescence values”; in the assay on MBP-SUFU-SH, “no such effect”.

The values are drawn from PMC3852661, “Structural basis of SUFU–GLI interaction in human Hedgehog signalling regulation” (Acta Crystallographica Section D: Biological Crystallography, 2013).
